Measured values as given in the supplement of paper PMC10307832.

How the values were obtained:
Assay in all cases: relative viability (nuclei count vs DMSO), 5 days (fraction); higher = more cells survive
BX 795 + OSI-027 = compound: O=C(NCCCNc1nc(Nc2cccc(NC(=O)N3CCCC3)c2)ncc1I)c1cccs1 [BX 795] + COc1cccc2cc(-c3nc([C@H]4CC[C@H](C(=O)O)CC4)n4ncnc(N)c34)[nH]c12 [OSI-027] (partner 0.5 µM)
In short: (§1)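 Lung cancer cell lines were pin-tool dosed in 1536-well plates on the day after seeding, with either a lone drug or a fixed anchor-drug dose plus five library-drug doses (not always all listed) in √10 steps. Nuclei were counted on 4× images after 5 days. Relative viability is the ratio of treated-well to vehicle-well nuclei counts, with each value a median of duplicate plates.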

BX 795 + Lapatinib = compound: O=C(NCCCNc1nc(Nc2cccc(NC(=O)N3CCCC3)c2)ncc1I)c1cccs1 [BX 795] + CS(=O)(=O)CCNCc1ccc(-c2ccc3ncnc(Nc4ccc(OCc5cccc(F)c5)c(Cl)c4)c3c2)o1 [Lapatinib] (partner 2 µM)
In short: as §1

BX 795 + AZD7762 = compound: O=C(NCCCNc1nc(Nc2cccc(NC(=O)N3CCCC3)c2)ncc1I)c1cccs1 [BX 795] + NC(=O)Nc1cc(-c2cccc(F)c2)sc1C(=O)N[C@H]1CCCNC1 [AZD7762] (partner 0.2 µM)
In short: as §1

BX 795 + Dasatinib = compound: O=C(NCCCNc1nc(Nc2cccc(NC(=O)N3CCCC3)c2)ncc1I)c1cccs1 [BX 795] + Cc1nc(Nc2ncc(C(=O)Nc3c(C)cccc3Cl)s2)cc(N2CCN(CCO)CC2)n1 [Dasatinib] (partner 0.075 µM)
In short: as §1

BX 795 + Linsitinib = compound: O=C(NCCCNc1nc(Nc2cccc(NC(=O)N3CCCC3)c2)ncc1I)c1cccs1 [BX 795] + C[C@]1(O)C[C@@H](c2nc(-c3ccc4ccc(-c5ccccc5)nc4c3)c3c(N)nccn32)C1 [Linsitinib] (partner 1 µM)
In short: as §1

HOP-62 showed a relative viability (BX 795 + OSI-027; first compound 0.04 µM) of 0.833, a relative viability (BX 795 + OSI-027; first compound 0.1265 µM) of 0.917 and a relative viability (BX 795 + OSI-027; first compound 0.4 µM) of 0.84. The relative viability (BX 795 + OSI-027; first compound 1.265 µM) was 0.768, the relative viability (BX 795 + Lapatinib; first compound 0.04 µM) was 1.09 and the relative viability (BX 795 + Lapatinib; first compound 0.1265 µM) was 1.1. For the same cell line, the relative viability (BX 795 + Lapatinib; first compound 0.4 µM) was 1.29, the relative viability (BX 795 + Lapatinib; first compound 1.265 µM) was 1.07 and the relative viability (BX 795 + AZD7762; first compound 0.04 µM) was 0.602. The relative viability (BX 795 + AZD7762; first compound 0.1265 µM) was 0.715, the relative viability (BX 795 + AZD7762; first compound 0.4 µM) was 0.672 and the relative viability (BX 795 + AZD7762; first compound 1.265 µM) was 0.528. The relative viability (BX 795 + Dasatinib; first compound 0.04 µM) was 0.659, the relative viability (BX 795 + Dasatinib; first compound 0.1265 µM) was 0.797 and the relative viability (BX 795 + Dasatinib; first compound 0.4 µM) was 0.668. For the same cell line, the relative viability (BX 795 + Dasatinib; first compound 1.265 µM) was 0.576, the relative viability (BX 795 + Linsitinib; first compound 0.04 µM) was 0.915 and the relative viability (BX 795 + Linsitinib; first compound 0.1265 µM) was 1.02. The relative viability (BX 795 + Linsitinib; first compound 0.4 µM) was 1.2 and the relative viability (BX 795 + Linsitinib; first compound 1.265 µM) was 0.525.
With PC-14 the relative viability (BX 795 + OSI-027; first compound 0.04 µM) was 0.738, the relative viability (BX 795 + OSI-027; first compound 0.1265 µM) was 0.968 and the relative viability (BX 795 + OSI-027; first compound 0.4 µM) was 0.572. For the same cell line, the relative viability (BX 795 + OSI-027; first compound 1.265 µM) was 0.475, the relative viability (BX 795 + Lapatinib; first compound 0.04 µM) was 0.284 and the relative viability (BX 795 + Lapatinib; first compound 0.1265 µM) was 0.35. For the same cell line, the relative viability (BX 795 + Lapatinib; first compound 0.4 µM) was 0.271, the relative viability (BX 795 + Lapatinib; first compound 1.265 µM) was 0.203 and the relative viability (BX 795 + AZD7762; first compound 0.04 µM) was 0.369. The relative viability (BX 795 + AZD7762; first compound 0.1265 µM) was 0.383, the relative viability (BX 795 + AZD7762; first compound 0.4 µM) was 0.335 and the relative viability (BX 795 + AZD7762; first compound 1.265 µM) was 0.282. For the same cell line, the relative viability (BX 795 + Dasatinib; first compound 0.04 µM) was 0.278, the relative viability (BX 795 + Dasatinib; first compound 0.1265 µM) was 0.249 and the relative viability (BX 795 + Dasatinib; first compound 0.4 µM) was 0.228. The relative viability (BX 795 + Dasatinib; first compound 1.265 µM) was 0.177, the relative viability (BX 795 + Linsitinib; first compound 0.04 µM) was 0.923 and the relative viability (BX 795 + Linsitinib; first compound 0.1265 µM) was 0.917. It also gave a relative viability (BX 795 + Linsitinib; first compound 0.4 µM) of 0.879 and a relative viability (BX 795 + Linsitinib; first compound 1.265 µM) of 0.75.
With EMC-BAC-2 the relative viability (BX 795 + OSI-027; first compound 0.04 µM) was 0.413, the relative viability (BX 795 + OSI-027; first compound 0.1265 µM) was 0.404 and the relative viability (BX 795 + OSI-027; first compound 0.4 µM) was 0.377. The relative viability (BX 795 + OSI-027; first compound 1.265 µM) was 0.273, the relative viability (BX 795 + Lapatinib; first compound 0.04 µM) was 0.907 and the relative viability (BX 795 + Lapatinib; first compound 0.1265 µM) was 0.905. For the same cell line, the relative viability (BX 795 + Lapatinib; first compound 0.4 µM) was 0.884, the relative viability (BX 795 + Lapatinib; first compound 1.265 µM) was 0.758 and the relative viability (BX 795 + AZD7762; first compound 0.04 µM) was 1.06. For the same cell line, the relative viability (BX 795 + AZD7762; first compound 0.1265 µM) was 1.09, the relative viability (BX 795 + AZD7762; first compound 0.4 µM) was 0.945 and the relative viability (BX 795 + AZD7762; first compound 1.265 µM) was 0.727. For the same cell line, the relative viability (BX 795 + Dasatinib; first compound 0.04 µM) was 0.296, the relative viability (BX 795 + Dasatinib; first compound 0.1265 µM) was 0.371 and the relative viability (BX 795 + Dasatinib; first compound 0.4 µM) was 0.287. For the same cell line, the relative viability (BX 795 + Dasatinib; first compound 1.265 µM) was 0.265, the relative viability (BX 795 + Linsitinib; first compound 0.04 µM) was 0.79 and the relative viability (BX 795 + Linsitinib; first compound 0.1265 µM) was 0.888. The relative viability (BX 795 + Linsitinib; first compound 0.4 µM) was 0.83 and the relative viability (BX 795 + Linsitinib; first compound 1.265 µM) was 0.615.
NCI-H596 gave a relative viability (BX 795 + OSI-027; first compound 0.04 µM) of 0.866, a relative viability (BX 795 + OSI-027; first compound 0.1265 µM) of 0.705 and a relative viability (BX 795 + OSI-027; first compound 0.4 µM) of 0.664. It also gave a relative viability (BX 795 + OSI-027; first compound 1.265 µM) of 0.684, a relative viability (BX 795 + Lapatinib; first compound 0.04 µM) of 1.01 and a relative viability (BX 795 + Lapatinib; first compound 0.1265 µM) of 1.11. The relative viability (BX 795 + Lapatinib; first compound 0.4 µM) was 1.11, the relative viability (BX 795 + Lapatinib; first compound 1.265 µM) was 1.15 and the relative viability (BX 795 + AZD7762; first compound 0.04 µM) was 1.11. For the same cell line, the relative viability (BX 795 + AZD7762; first compound 0.1265 µM) was 0.956, the relative viability (BX 795 + AZD7762; first compound 0.4 µM) was 1.14 and the relative viability (BX 795 + AZD7762; first compound 1.265 µM) was 1.03. The relative viability (BX 795 + Dasatinib; first compound 0.04 µM) was 0.626, the relative viability (BX 795 + Dasatinib; first compound 0.1265 µM) was 0.587 and the relative viability (BX 795 + Dasatinib; first compound 0.4 µM) was 0.561. For the same cell line, the relative viability (BX 795 + Dasatinib; first compound 1.265 µM) was 0.591, the relative viability (BX 795 + Linsitinib; first compound 0.04 µM) was 1.09 and the relative viability (BX 795 + Linsitinib; first compound 0.1265 µM) was 1.25. For the same cell line, the relative viability (BX 795 + Linsitinib; first compound 0.4 µM) was 1.16 and the relative viability (BX 795 + Linsitinib; first compound 1.265 µM) was 1.03.
Work on NCI-H650 yielded a relative viability (BX 795 + OSI-027; first compound 0.04 µM) of 0.527, a relative viability (BX 795 + OSI-027; first compound 0.1265 µM) of 0.556 and a relative viability (BX 795 + OSI-027; first compound 0.4 µM) of 0.559. It also gave a relative viability (BX 795 + OSI-027; first compound 1.265 µM) of 0.391, a relative viability (BX 795 + Lapatinib; first compound 0.04 µM) of 0.86 and a relative viability (BX 795 + Lapatinib; first compound 0.1265 µM) of 0.873. It also gave a relative viability (BX 795 + Lapatinib; first compound 0.4 µM) of 0.952, a relative viability (BX 795 + Lapatinib; first compound 1.265 µM) of 0.689 and a relative viability (BX 795 + AZD7762; first compound 0.04 µM) of 0.843. It also gave a relative viability (BX 795 + AZD7762; first compound 0.1265 µM) of 0.908, a relative viability (BX 795 + AZD7762; first compound 0.4 µM) of 0.701 and a relative viability (BX 795 + AZD7762; first compound 1.265 µM) of 1.05. For the same cell line, the relative viability (BX 795 + Dasatinib; first compound 0.04 µM) was 0.463, the relative viability (BX 795 + Dasatinib; first compound 0.1265 µM) was 0.41 and the relative viability (BX 795 + Dasatinib; first compound 0.4 µM) was 0.42. The relative viability (BX 795 + Dasatinib; first compound 1.265 µM) was 0.337, the relative viability (BX 795 + Linsitinib; first compound 0.04 µM) was 0.752 and the relative viability (BX 795 + Linsitinib; first compound 0.1265 µM) was 0.739. It also gave a relative viability (BX 795 + Linsitinib; first compound 0.4 µM) of 1.03 and a relative viability (BX 795 + Linsitinib; first compound 1.265 µM) of 0.549.
